Assay results taken from publication PMC11233931, “Remodeling tumor‐associated macrophage for anti‐cancer effects by rational design of irreversible inhibition of mitogen‐activated protein kinase‐activated protein kinase 2” (MedComm, 2024).

Tests used:
Experiment in all cases: Eurofins kinase selectivity profile against 380 other human recombinant kinases (Table S2)
Assay type in all cases: biochemical
[1] = biological target: T1, 380 human recombinant protein kinases (Homo sapiens, UniProt Q13546); conditions: RIPK1(h), read-out: Inhibition rate
T1 construct: purchased Eurofins (Celle Lévescault)
T1 sequence (Q13546 1-671): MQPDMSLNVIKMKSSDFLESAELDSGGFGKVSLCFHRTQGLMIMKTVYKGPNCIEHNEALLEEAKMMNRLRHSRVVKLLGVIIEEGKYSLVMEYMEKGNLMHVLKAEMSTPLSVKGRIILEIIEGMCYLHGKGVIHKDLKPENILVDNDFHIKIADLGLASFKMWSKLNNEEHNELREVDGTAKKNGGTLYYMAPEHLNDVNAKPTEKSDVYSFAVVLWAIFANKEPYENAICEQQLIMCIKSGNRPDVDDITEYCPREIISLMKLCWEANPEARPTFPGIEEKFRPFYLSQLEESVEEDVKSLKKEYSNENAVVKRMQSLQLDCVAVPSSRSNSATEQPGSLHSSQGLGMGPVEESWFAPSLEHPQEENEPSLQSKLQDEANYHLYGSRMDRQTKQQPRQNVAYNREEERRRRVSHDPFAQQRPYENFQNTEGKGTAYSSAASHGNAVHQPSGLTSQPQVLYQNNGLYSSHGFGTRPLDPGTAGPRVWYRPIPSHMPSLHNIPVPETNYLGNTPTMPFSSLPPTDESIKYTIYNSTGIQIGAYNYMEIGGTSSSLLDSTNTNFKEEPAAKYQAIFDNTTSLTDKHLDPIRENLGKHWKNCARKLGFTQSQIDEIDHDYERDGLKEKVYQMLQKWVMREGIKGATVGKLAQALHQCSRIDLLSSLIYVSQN
In short: (§1)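 Selectivity panel of 380 human recombinant protein kinases, screened by Eurofins at a range of concentrations.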

[2] = biological target: T2, 380 human recombinant protein kinases (Homo sapiens, UniProt Q86Y07); conditions: VRK2(h), read-out: Inhibition rate (%)
T2 construct: purchased Eurofins (Celle Lévescault)
In short: as §1

[3] = biological target: T3, 380 human recombinant protein kinases (Homo sapiens, UniProt P53667); conditions: LIMK1(h), read-out: Inhibition rate
T3 construct: purchased Eurofins (Celle Lévescault)
In short: as §1

[4] = biological target: T4, 380 human recombinant protein kinases (Homo sapiens, UniProt P06239); conditions: Lck(h), read-out: Inhibition rate
T4 construct: purchased Eurofins (Celle Lévescault)
In short: as §1

[5] = biological target: T5, 380 human recombinant protein kinases (Homo sapiens, UniProt O15146); conditions: MuSK(h), read-out: Inhibition rate
T5 construct: purchased Eurofins (Celle Lévescault)
T5 sequence (O15146 24-869): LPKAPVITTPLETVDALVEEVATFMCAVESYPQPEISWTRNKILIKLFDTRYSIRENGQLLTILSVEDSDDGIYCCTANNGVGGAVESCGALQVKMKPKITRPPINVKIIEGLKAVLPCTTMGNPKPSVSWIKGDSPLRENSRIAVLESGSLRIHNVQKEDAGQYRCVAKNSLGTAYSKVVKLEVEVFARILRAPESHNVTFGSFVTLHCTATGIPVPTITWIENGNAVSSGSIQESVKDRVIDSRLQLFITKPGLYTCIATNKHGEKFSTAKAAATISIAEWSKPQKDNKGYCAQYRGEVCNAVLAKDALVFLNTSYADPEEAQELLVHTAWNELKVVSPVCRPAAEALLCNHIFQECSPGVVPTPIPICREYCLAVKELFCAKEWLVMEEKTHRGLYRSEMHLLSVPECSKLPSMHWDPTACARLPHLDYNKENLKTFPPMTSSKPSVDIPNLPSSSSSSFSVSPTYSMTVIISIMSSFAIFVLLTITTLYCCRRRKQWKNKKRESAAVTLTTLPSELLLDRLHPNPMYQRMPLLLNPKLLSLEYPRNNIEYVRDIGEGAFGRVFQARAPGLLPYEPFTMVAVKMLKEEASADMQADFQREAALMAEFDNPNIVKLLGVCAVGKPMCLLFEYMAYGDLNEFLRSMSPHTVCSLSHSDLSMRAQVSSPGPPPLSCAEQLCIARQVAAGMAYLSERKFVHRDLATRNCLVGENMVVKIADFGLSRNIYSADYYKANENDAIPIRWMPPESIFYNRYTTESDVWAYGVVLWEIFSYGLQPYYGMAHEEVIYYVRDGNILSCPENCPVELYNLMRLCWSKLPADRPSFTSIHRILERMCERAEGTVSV
In short: as §1

[6] = biological target: T6, 380 human recombinant protein kinases (Homo sapiens, UniProt P53350); conditions: Plk1(h), read-out: Inhibition rate
T6 construct: purchased Eurofins (Celle Lévescault)
In short: as §1

[7] = biological target: T7, 380 human recombinant protein kinases (Homo sapiens, UniProt P06213); conditions: IR(h), read-out: Inhibition rate
T7 construct: purchased Eurofins (Celle Lévescault)
In short: as §1

[8] = biological target: T8, 380 human recombinant protein kinases (Homo sapiens, UniProt P29376); conditions: LTK(h), read-out: Inhibition rate
T8 construct: purchased Eurofins (Celle Lévescault)
In short: as §1

T7 sequence (P06213 28-1382): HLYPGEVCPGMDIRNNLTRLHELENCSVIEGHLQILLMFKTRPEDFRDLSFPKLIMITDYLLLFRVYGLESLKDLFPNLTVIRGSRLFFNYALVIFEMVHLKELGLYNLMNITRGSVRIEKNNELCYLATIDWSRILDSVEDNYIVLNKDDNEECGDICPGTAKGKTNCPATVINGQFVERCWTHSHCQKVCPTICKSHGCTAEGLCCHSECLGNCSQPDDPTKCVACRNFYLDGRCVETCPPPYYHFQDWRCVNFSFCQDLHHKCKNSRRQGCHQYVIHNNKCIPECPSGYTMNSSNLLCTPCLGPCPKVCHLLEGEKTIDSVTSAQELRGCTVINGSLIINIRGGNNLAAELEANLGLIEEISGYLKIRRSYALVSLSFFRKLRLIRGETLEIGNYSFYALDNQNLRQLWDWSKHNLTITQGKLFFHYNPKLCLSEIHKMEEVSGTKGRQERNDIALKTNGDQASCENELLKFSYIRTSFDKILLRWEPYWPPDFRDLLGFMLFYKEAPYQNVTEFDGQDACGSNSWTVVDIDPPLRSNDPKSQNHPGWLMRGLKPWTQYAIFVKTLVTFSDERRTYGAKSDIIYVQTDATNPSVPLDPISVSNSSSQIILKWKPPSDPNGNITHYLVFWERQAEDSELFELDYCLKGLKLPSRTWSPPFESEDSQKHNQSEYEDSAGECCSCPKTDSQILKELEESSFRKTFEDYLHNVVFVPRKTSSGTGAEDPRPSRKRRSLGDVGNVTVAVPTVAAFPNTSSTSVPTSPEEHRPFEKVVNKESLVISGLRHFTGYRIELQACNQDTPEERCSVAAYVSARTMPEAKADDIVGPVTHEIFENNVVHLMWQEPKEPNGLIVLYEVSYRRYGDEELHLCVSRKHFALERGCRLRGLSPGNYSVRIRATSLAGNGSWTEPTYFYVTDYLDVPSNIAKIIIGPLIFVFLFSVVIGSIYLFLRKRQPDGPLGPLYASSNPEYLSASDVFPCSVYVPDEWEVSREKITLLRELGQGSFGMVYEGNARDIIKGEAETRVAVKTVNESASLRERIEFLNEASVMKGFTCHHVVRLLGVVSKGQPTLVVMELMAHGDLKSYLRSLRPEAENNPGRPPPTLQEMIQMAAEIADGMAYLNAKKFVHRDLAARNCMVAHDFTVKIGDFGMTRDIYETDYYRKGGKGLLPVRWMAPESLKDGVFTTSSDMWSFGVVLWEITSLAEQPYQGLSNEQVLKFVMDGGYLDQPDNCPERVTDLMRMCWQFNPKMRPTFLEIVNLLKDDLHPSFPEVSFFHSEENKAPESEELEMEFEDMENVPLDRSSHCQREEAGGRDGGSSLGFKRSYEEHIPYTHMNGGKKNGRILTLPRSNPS
T2 sequence (Q86Y07 whole entry): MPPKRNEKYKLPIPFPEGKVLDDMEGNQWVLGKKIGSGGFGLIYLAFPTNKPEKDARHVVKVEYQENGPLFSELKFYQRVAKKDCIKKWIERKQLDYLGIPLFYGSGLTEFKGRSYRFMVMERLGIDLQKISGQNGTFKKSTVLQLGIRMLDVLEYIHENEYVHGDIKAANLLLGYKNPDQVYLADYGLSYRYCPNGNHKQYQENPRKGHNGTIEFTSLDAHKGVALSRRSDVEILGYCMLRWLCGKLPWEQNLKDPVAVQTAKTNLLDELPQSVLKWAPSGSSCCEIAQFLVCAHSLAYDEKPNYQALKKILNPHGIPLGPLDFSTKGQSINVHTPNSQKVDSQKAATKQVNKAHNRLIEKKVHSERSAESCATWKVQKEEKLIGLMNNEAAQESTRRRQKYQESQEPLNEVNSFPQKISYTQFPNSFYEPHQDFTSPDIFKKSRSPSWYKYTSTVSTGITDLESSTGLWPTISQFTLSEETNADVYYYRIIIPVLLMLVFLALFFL
T8 sequence (P29376 17-864): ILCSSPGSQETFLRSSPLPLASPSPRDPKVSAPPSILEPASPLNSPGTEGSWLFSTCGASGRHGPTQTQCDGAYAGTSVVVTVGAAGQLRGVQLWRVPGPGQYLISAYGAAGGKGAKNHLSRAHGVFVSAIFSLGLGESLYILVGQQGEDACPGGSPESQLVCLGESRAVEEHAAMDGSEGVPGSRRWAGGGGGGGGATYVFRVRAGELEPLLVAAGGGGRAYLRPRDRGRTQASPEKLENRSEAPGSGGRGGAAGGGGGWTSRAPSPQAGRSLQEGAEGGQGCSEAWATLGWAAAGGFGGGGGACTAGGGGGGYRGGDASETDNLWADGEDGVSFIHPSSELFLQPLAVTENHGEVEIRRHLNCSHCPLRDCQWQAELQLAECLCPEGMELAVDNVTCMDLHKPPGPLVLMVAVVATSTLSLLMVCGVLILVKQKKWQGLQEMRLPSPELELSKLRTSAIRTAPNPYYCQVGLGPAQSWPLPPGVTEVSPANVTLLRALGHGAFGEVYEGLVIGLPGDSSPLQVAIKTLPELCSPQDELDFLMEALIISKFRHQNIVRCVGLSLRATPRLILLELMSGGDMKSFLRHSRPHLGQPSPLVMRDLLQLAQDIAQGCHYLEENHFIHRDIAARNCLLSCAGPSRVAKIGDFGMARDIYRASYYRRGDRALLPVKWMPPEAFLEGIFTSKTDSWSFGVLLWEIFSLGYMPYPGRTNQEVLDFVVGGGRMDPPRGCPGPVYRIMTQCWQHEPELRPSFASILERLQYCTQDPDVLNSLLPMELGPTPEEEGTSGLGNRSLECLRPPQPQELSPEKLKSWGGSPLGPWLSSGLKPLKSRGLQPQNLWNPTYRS
T3 sequence (P53667 whole entry): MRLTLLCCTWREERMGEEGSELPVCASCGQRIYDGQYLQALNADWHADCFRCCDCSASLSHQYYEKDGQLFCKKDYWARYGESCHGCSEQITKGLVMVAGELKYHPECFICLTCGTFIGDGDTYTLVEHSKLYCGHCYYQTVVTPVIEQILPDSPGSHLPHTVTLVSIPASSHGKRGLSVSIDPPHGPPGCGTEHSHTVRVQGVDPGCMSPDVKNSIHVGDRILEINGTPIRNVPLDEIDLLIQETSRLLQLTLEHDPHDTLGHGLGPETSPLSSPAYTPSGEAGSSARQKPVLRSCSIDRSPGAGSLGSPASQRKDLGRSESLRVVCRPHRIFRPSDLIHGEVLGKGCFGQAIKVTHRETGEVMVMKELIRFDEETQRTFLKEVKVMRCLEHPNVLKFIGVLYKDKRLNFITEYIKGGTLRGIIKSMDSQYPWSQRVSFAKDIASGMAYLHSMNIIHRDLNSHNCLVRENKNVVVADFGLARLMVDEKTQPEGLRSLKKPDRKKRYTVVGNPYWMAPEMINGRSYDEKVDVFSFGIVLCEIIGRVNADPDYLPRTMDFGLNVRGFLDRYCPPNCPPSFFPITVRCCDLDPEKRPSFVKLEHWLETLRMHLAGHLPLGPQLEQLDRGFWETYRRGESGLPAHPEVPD
T6 sequence (P53350 whole entry): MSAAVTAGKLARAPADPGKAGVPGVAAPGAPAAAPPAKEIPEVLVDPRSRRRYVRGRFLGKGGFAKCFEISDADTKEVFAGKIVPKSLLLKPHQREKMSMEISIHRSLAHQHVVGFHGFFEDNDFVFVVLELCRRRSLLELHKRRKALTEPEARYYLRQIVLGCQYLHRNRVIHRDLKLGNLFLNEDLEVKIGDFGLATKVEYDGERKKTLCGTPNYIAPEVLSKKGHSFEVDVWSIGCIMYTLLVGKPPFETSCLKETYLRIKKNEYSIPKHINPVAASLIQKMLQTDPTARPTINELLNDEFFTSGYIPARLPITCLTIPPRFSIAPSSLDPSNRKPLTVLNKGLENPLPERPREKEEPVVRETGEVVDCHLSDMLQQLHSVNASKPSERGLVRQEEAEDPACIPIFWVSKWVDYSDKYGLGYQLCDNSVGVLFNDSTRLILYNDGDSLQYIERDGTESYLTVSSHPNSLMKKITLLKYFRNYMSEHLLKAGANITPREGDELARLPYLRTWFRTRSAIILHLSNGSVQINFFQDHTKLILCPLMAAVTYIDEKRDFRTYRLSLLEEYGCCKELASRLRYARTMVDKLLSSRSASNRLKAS
T4 sequence (P06239 whole entry): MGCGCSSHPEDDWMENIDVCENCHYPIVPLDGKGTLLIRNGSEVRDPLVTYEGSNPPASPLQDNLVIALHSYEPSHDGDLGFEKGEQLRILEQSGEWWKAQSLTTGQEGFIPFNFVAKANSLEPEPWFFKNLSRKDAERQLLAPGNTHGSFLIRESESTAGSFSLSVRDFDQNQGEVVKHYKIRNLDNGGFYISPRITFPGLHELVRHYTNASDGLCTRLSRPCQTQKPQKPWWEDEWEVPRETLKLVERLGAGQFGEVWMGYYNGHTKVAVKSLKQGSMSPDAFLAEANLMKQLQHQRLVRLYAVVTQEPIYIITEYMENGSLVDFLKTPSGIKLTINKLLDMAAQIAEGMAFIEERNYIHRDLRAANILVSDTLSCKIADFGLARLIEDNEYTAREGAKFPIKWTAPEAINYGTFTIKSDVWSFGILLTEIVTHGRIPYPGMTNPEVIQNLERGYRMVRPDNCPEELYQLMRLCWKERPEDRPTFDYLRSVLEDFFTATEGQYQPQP

## C=CC(=O)Nc1cc(-c2cc(-c3cc4c([nH]3)CCNC4=O)ccn2)ccc1OC(F)(F)F [compound 11]
[1]; 10 nM
  inhibition at 0.01 µM: -7%
[1]; 100 nM
  inhibition at 0.1 µM: -3%
[1]; 1000 nM
  inhibition at 1 µM: 3%
[2]; 10 nM
  inhibition at 0.01 µM: 7%
[2]; 100 nM
  inhibition at 0.1 µM: 8%
[2]; 1000 nM
  inhibition at 1 µM: 7%
[3]; 10 nM
  inhibition at 0.01 µM: -5%
[3]; 100 nM
  inhibition at 0.1 µM: -2%
[3]; 1000 nM
  inhibition at 1 µM: -2%
[4]; 10 nM
  inhibition at 0.01 µM: -7%
[4]; 100 nM
  inhibition at 0.1 µM: -5%
[4]; 1000 nM
  inhibition at 1 µM: -10%
[5]; 10 nM
  inhibition at 0.01 µM: 7%
[5]; 100 nM
  inhibition at 0.1 µM: 7%
[5]; 1000 nM
  inhibition at 1 µM: 7%
[6]; 10 nM
  inhibition at 0.01 µM: 13%
[6]; 100 nM
  inhibition at 0.1 µM: 15%
[6]; 1000 nM
  inhibition at 1 µM: 13%
[7]; 10 nM
  inhibition at 0.01 µM: -9%
[7]; 100 nM
  inhibition at 0.1 µM: -4%
[7]; 1000 nM
  inhibition at 1 µM: -10%
[8]; 10 nM
  inhibition at 0.01 µM: -6%
[8]; 100 nM
  inhibition at 0.1 µM: 2%
[8]; 1000 nM
  inhibition at 1 µM: 6%
